Literature values, collected in patent US20070025931A1, “Powdery preparations containing 2.4.6-trianilino-p-(carbo-2'-ethylhexyl-1'-oxi)-1.3.5-triazine” (BASF Aktiengesellschaft, priority 2004, published 2007).

Settings: at 314 nm

absorbance coefficient: > 1500
SMILES: CCCCC(CC)COC(=O)c1ccc(Nc2nc(Nc3ccc(C(=O)OCC(CC)CCCC)cc3)nc(Nc3ccc(C(=O)OCC(CC)CCCC)cc3)n2)cc1 (stereo not shown) [Uvinul® T150, 2,4,6-Trianilino-p-(carbo-2′-ethylhexyl-1′-oxy)-1,3,5-triazine]
